In brackets after ≈: the same amount, converted by molar mass. Read-outs that look alike come from different tables or passages of the source.
Tests used:
Format in all cases: cell-based
E. coli strains = assay: MIC against E. coli strains (Table M7); settings: Escherichia coli, ATCC25922, E. coli ATCC 25922
Text: (§1) We have collected MIC data for a total of 50 novel macrolides that this platform has produced against over 21 unique strains of B. subtilis, E. coli, S. aureus, S. pneumoniae, and H. influenzae, including several multidrug-resistant strains, with a special focus on macrolide resistant mechanisms (vide supra). Azithromycin was included as a control macrolide. CLSI standard procedures for broth dilution MIC determination were used. […] These genotypes can be constitutive or inducible. The finding that C4-epi (unnatural) isomers of the “azaketolide” macrolide class have enhanced activities relative to C4 natural isomers is very exciting.

H. influenzae strains = assay: MIC against H. influenzae strains (Table M8); settings: for MIC: Haemophilus influenzae
Text: as §1

S. aureus strains = assay: MIC against S. aureus strains (Table M7); settings: Staphylococcus aureus
Text: as §1

E. faecalis strains = assay: MIC against E. faecalis strains (Table M8); settings: for MIC: Enterococcus faecalis, E. faecalis 29212
K. pneumoniae strains = assay: MIC against K. pneumoniae strains (Table M8); settings: for MIC: Klebsiella pneumoniae, K. pneumoniae 10031
S. pneumoniae strains = assay: MIC against S. pneumoniae strains (Tables M7, M8); settings: for MIC: Streptococcus pneumoniae
Text: CLSI standard procedures for broth dilution MIC determination were used. […] These genotypes can be constitutive or inducible.

A. baumannii strains = assay: MIC against A. baumannii strains (Table M8); settings: Acinetobacter baumannii, BAA747, A. baumannii BAA747-1
[1] = H. influenzae 49766, read-out: MIC H. influenzae (49766)
[2] = ATCC29213, S. aureus ATCC 29213, read-out: MIC S. aureus (ATCC 29213)
[3] = S. aureus 183, read-out: MIC S. aureus (183)
[4] = S. aureus 506, read-out: MIC S. aureus (506)
[5] = S. aureus 1708, read-out: MIC S. aureus (1708)
[6] = USA300, S. aureus USA300, read-out: MIC S. aureus (USA300)
[7] = S. pneumoniae 1509, read-out: MIC S. pneumoniae (1509)
[8] = S. pneumoniae 1533, read-out: MIC S. pneumoniae (1533)
[9] = S. pneumoniae 1537, read-out: MIC S. pneumoniae (1537)
[10] = H. influenzae 49247, read-out: MIC H. influenzae (49247)
[11] = S. pneumoniae 160, read-out: MIC S. pneumonae (160)
[12] = S. pneumoniae 49619, read-out: MIC S. pneumoniae (49619)

MIC (E. coli strains) [µg/mL]	MIC (H. influenzae strains; [1]) [µg/mL]	MIC (S. aureus strains; [2]) [µg/mL]	MIC (S. aureus strains; [3]) [µg/mL]	MIC (S. aureus strains; [4]) [µg/mL]	MIC (S. aureus strains; [5]) [µg/mL]	MIC (S. aureus strains; [6]) [µg/mL]	MIC S. pneumoniae (49619) (S. pneumoniae strains; S. pneumoniae 49619) [µg/mL]	MIC (S. pneumoniae strains; [7]) [µg/mL]	MIC (S. pneumoniae strains; [8]) [µg/mL]	MIC (S. pneumoniae strains; [9]) [µg/mL]	MIC (A. baumannii strains) [µg/mL]	MIC (H. influenzae strains; [10]) [µg/mL]	MIC (E. faecalis strains) [µg/mL]	MIC (K. pneumoniae strains) [µg/mL]	MIC (S. pneumoniae strains; [11]) [µg/mL]	MIC (S. pneumoniae strains; [12]) [µg/mL]	Compound	other results
32 (≈ 38.1 µM)	16 (≈ 19 µM)	16 (≈ 19 µM)	> 32	> 32	32 (≈ 38.1 µM)	16 (≈ 19 µM)	1 (≈ 1.19 µM)	> 32	> 32	> 32	> 32						C=CC[C@@]1(OC)C[C@@H](C)CN[C@H](C)[C@H]2N(CCCCn3cc(-c4ccccn4)nn3)C(=O)O[C@]2(C)[C@@H](CC)OC(=O)[C@H](C)C(=O)[C@H](C)[C@H]1O[C@@H]1OC(C)CC(N(C)C)C1O (stereo partly drawn) [FSM-21423]	MIC H. influenzae (49247) (H. influenzae strains; H. influenzae 49247): 2 µg/mL (≈ 2.38 µM); MIC E. faecalis (29212) (E. faecalis strains): 4 µg/mL (≈ 4.76 µM); MIC K. pneumoniae (10031) (K. pneumoniae strains): 8 µg/mL (≈ 9.52 µM); MIC S. pneumonae (160) (S. pneumoniae strains; S. pneumoniae 160): 0.25 µg/mL (≈ 0.298 µM)
> 32	32 (≈ 35.8 µM)	> 32	> 32	> 32	> 32	> 32		> 32	> 32	> 32	> 32	8 (≈ 8.95 µM)	32 (≈ 35.8 µM)	16 (≈ 17.9 µM)	8 (≈ 8.95 µM)	2 (≈ 2.24 µM)	CC[C@H]1OC(=O)[C@H](Cc2cn[nH]c2)C(=O)[C@H](C)[C@@H](O[C@@H]2OC(C)CC(N(C)C)C2O)[C@](C)(OC)C[C@@H](C)CN[C@H](C)[C@H]2N(CCCCn3cc(-c4cccc(N)c4)nn3)C(=O)O[C@]12C (stereo partly drawn) [FSM-56192]	
4 (≈ 4.82 µM)	4 (≈ 4.82 µM)	16 (≈ 19.3 µM)	> 32	> 32	> 32	16 (≈ 19.3 µM)		> 32	> 32	> 32	8 (≈ 9.64 µM)	1 (≈ 1.2 µM)	8 (≈ 9.64 µM)	2 (≈ 2.41 µM)	0.5 (≈ 0.602 µM)	0.5 (≈ 0.602 µM)	CC[C@H]1OC(=O)[C@H](C)C(O)[C@H](C)[C@@H](O[C@@H]2OC(C)CC(N(C)C)C2O)[C@](C)(OC)C[C@@H](C)CN[C@H](C)[C@H]2N(CCCCn3cc(-c4cccc(N)c4)nn3)C(=O)O[C@]12C (stereo partly drawn) [FSM-21340]	
32 (≈ 37 µM)	8 (≈ 9.26 µM)	2 (≈ 2.31 µM)	> 32	> 32	2 (≈ 2.31 µM)	4 (≈ 4.63 µM)		1 (≈ 1.16 µM)	> 32	> 32	> 32	2 (≈ 2.31 µM)	0.5 (≈ 0.579 µM)	16 (≈ 18.5 µM)	0.25 (≈ 0.289 µM)	0.25 (≈ 0.289 µM)	CC[C@H]1OC(=O)C(C)(F)C(=O)[C@H](C)[C@@H](O[C@@H]2OC(C)CC(N(C)C)C2O)[C@](C)(OC)CC(C)(F)CN[C@H](C)[C@H]2N(CCCCn3cc(-c4cccc(N)c4)nn3)C(=O)O[C@]12C (stereo partly drawn) [FSM-30704]	
4 (≈ 4.68 µM)	4 (≈ 4.68 µM)	8 (≈ 9.37 µM)	> 32	> 32	16 (≈ 18.7 µM)	8 (≈ 9.37 µM)	0.25 (≈ 0.293 µM)	8 (≈ 9.37 µM)	> 32	> 32	16 (≈ 18.7 µM)	1 (≈ 1.17 µM)	2 (≈ 2.34 µM)	4 (≈ 4.68 µM)	0.125 (≈ 0.146 µM)		C=CC[C@@]1(OC)C[C@@H](C)CN[C@H](C)[C@H]2N(CCCCn3cc(-c4cccc(N)c4)nn3)C(=O)O[C@]2(C)[C@@H](CC)OC(=O)[C@H](C)C(=O)[C@@H](C)[C@H]1O[C@@H]1OC(C)CC(N(C)C)C1O (stereo partly drawn) [FSM-21367]	
8 (≈ 10.2 µM)	8 (≈ 10.2 µM)	1 (≈ 1.28 µM)	> 32	> 32	1 (≈ 1.28 µM)	2 (≈ 2.56 µM)		1 (≈ 1.28 µM)	> 32	32 (≈ 41 µM)	32 (≈ 41 µM)	2 (≈ 2.56 µM)	0.5 (≈ 0.64 µM)	2 (≈ 2.56 µM)	≤ 0.0625	0.125 (≈ 0.16 µM)	CC[C@H]1OC(=O)C(C)C(=O)[C@H](C)[C@@H](O[C@@H]2OC(C)CC(N(C)C)C2O)[C@](C)(OC/C=C/c2cnc3ccccc3c2)C[C@@H](C)CN(C)[C@H](C)[C@H]2NC(=O)O[C@@]21C (stereo partly drawn) [FSM-21118]	
